Measured values: the NIST ThermoML archive (doi:10.1021/je049762q)
“And” between values parts separate entries of the source, which are not always exact repeats. Equal entries are not always repeated.

Experiment: molar heat capacity at constant pressure
Settings: 101.33 kPa, Crystal

Clc1cc(Cl)cc(Cl)c1 [1,3,5-trichlorobenzene]
Settings	molar heat capacity at constant pressure
6.3 K	0.73 J/K/mol
6.76 K	1.13 J/K/mol
7.5 K	1.88 J/K/mol
7.61 K	1.64 J/K/mol
8.27 K	2.46 J/K/mol
8.49 K	2.76 J/K/mol
9.54 K	3.28 J/K/mol
9.57 K	3.32 J/K/mol
10 K	3.78 J/K/mol
10.48 K	4.28 J/K/mol
10.78 K	4.56 J/K/mol
11.23 K	4.67 J/K/mol
11.76 K	5.07 J/K/mol
12.18 K	5.67 J/K/mol
13.16 K	7.41 J/K/mol
14.33 K	8.56 J/K/mol
14.68 K	9.1 J/K/mol
15 K	9.58 J/K/mol
16.47 K	11.78 J/K/mol
16.54 K	11.86 J/K/mol
18.11 K	14.04 J/K/mol
18.46 K	14.51 J/K/mol
19.49 K	16.03 J/K/mol
20 K	16.74 J/K/mol
20.47 K	17.39 J/K/mol
20.67 K	17.88 J/K/mol
21.77 K	19.17 J/K/mol
22.76 K	20.24 J/K/mol
24.03 K	21.5 J/K/mol
25 K	22.66 J/K/mol
25.53 K	23.3 J/K/mol
26.89 K	24.95 J/K/mol
26.99 K	25.08 J/K/mol
28.15 K	26.53 J/K/mol
29.75 K	28.33 J/K/mol
30 K	28.58 J/K/mol
32.12 K	30.66 J/K/mol
34.24 K	32.73 J/K/mol
36.16 K	34.21 J/K/mol
37.93 K	35.9 J/K/mol
39.58 K	37.3 J/K/mol
40 K	37.64 J/K/mol
41.88 K	39.13 J/K/mol
44.77 K	41.44 J/K/mol
47.4 K	43.42 J/K/mol
49.84 K	45.24 J/K/mol
50 K	45.36 J/K/mol
52.12 K	46.94 J/K/mol
54.28 K	48.44 J/K/mol
56.33 K	49.86 J/K/mol
58.29 K	51.22 J/K/mol
60 K	52.37 J/K/mol
60.17 K	52.49 J/K/mol
61.98 K	53.68 J/K/mol
63.73 K	54.83 J/K/mol
65.43 K	55.89 J/K/mol
67.08 K	56.99 J/K/mol
68.68 K	57.99 J/K/mol
70 K	58.81 J/K/mol
70.25 K	58.96 J/K/mol
71.78 K	59.87 J/K/mol
73.27 K	60.75 J/K/mol
74.74 K	61.66 J/K/mol
76.18 K	62.52 J/K/mol
77.59 K	63.36 J/K/mol
78.98 K	64.16 J/K/mol
80 K	65.01 J/K/mol
80.55 K	65.45 J/K/mol
81.45 K	65.93 J/K/mol
82.22 K	66.44 J/K/mol
83.86 K	67.37 J/K/mol
83.98 K	67.39 J/K/mol
85.47 K	68.28 J/K/mol
86.45 K	68.77 J/K/mol
87.05 K	69.08 J/K/mol
88.6 K	70 J/K/mol
88.86 K	70.1 J/K/mol
90 K	70.62 J/K/mol
90.14 K	70.69 J/K/mol
91.23 K	71.17 J/K/mol
91.65 K	71.42 J/K/mol
93.14 K	72.19 J/K/mol
93.56 K	72.31 J/K/mol
94.61 K	72.86 J/K/mol
94.95 K	73 J/K/mol
95.84 K	73.25 J/K/mol
96.07 K	73.4 J/K/mol
97.51 K	74.13 J/K/mol
98.08 K	74.45 J/K/mol
98.92 K	74.86 J/K/mol
100 K	75.37 J/K/mol
100.29 K	74.9 J/K/mol
101.72 K	76.37 J/K/mol
102.39 K	76.72 J/K/mol
102.47 K	76.71 J/K/mol
103.09 K	76.88 J/K/mol
104.45 K	77.52 J/K/mol
104.61 K	77.48 J/K/mol
105.8 K	78.18 J/K/mol
105.97 K	78.26 J/K/mol
106.72 K	78.56 J/K/mol
107.13 K	78.9 J/K/mol
107.15 K	78.92 J/K/mol
108.46 K	79.49 J/K/mol
108.81 K	79.58 J/K/mol
109.46 K	80.02 J/K/mol
109.77 K	80.18 J/K/mol
110 K	80.28 J/K/mol
110.87 K	80.59 J/K/mol
111.07 K	80.74 J/K/mol
111.47 K	80.93 J/K/mol
112.36 K	81.34 J/K/mol
112.87 K	81.56 J/K/mol
113.65 K	81.98 J/K/mol
114.92 K	82.54 J/K/mol and 82.67 J/K/mol
115.68 K	83.09 J/K/mol
116.19 K	83.21 J/K/mol
116.91 K	83.54 J/K/mol
118.88 K	84.5 J/K/mol
119.52 K	84.75 J/K/mol
119.79 K	85.04 J/K/mol
120 K	85.15 J/K/mol
120.83 K	85.51 J/K/mol
122.75 K	86.55 J/K/mol
124.68 K	87.28 J/K/mol
125.93 K	87.73 J/K/mol
126.58 K	88.03 J/K/mol
127.78 K	88.73 J/K/mol
128.47 K	88.92 J/K/mol
129.07 K	89.19 J/K/mol
130 K	89.68 J/K/mol
130.33 K	89.86 J/K/mol
131.66 K	90.66 J/K/mol
132.19 K	90.72 J/K/mol
134.03 K	91.56 J/K/mol
135.22 K	92.02 J/K/mol
135.48 K	92.36 J/K/mol
135.85 K	92.4 J/K/mol
137.66 K	93.21 J/K/mol
138.23 K	93.42 J/K/mol
139.24 K	94.03 J/K/mol
140 K	94.33 J/K/mol
141.21 K	94.75 J/K/mol
141.25 K	94.81 J/K/mol
142.95 K	95.67 J/K/mol
144.16 K	96.04 J/K/mol
146.61 K	97.27 J/K/mol
147.08 K	97.34 J/K/mol
149.97 K	98.63 J/K/mol
150 K	98.65 J/K/mol
150.22 K	98.83 J/K/mol
152.83 K	99.87 J/K/mol
153.79 K	100.35 J/K/mol
155.66 K	101.1 J/K/mol
157.32 K	101.86 J/K/mol
158.47 K	102.3 J/K/mol
160 K	102.99 J/K/mol
160.81 K	103.34 J/K/mol
161.25 K	103.49 J/K/mol
164.01 K	104.67 J/K/mol
164.27 K	104.83 J/K/mol
166.74 K	105.83 J/K/mol
167.69 K	106.28 J/K/mol
169.46 K	106.98 J/K/mol
170 K	107.22 J/K/mol
